Key:
[1] = biological target: T1, Coagulation factor VII (Homo sapiens, UniProt P08709); assay: Inhibitory concentration against Coagulation factor VIIa
T1 sequence (P08709 whole entry): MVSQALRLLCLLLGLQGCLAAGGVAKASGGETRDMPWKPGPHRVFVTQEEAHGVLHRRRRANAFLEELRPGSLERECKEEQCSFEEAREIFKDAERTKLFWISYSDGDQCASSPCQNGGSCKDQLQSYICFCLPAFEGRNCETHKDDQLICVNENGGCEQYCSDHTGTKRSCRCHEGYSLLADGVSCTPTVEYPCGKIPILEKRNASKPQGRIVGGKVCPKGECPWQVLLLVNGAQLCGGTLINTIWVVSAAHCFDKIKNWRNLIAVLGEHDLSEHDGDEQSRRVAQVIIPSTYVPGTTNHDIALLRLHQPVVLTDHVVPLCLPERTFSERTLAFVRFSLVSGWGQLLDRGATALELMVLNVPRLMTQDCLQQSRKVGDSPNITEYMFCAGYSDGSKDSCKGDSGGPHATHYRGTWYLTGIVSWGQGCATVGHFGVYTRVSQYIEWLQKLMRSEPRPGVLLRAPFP

[2] = Inhibitory concentration against Trypsin
[3] = Inhibitory concentration against Factor IIa
[4] = Inhibitory concentration against Coagulation factor Xa

Row | SMILES | IC50 [1] | IC50 [2] | IC50 [3] | IC50 [4]
1 | CC[C@@H](C)NC(=O)c1cc(N)cc(-c2cnc(NC(C)C)c(=O)n2CC(=O)NCc2ccc(C(=N)N)cc2C(=O)NCCN2CCOCC2)c1 | 20 nM | 21 nM | 16700 nM | > 30000 nM
2 | CC[C@@H](C)NC(=O)c1cc(N)cc(-c2cnc(NC(C)C)c(=O)n2CC(=O)NCc2ccc(C(=N)N)cc2C(=O)NCC(F)(F)F)c1 | 12 nM | 15 nM | 22600 nM | > 30000 nM
3 | CC[C@@H](C)NC(=O)c1cc(N)cc(-c2cnc(NC(C)C)c(=O)n2CC(=O)NCc2ccc(C(=N)N)cc2)c1 | 1.7 nM | 15 nM | 6100 nM | > 30000 nM
4 | CC[C@@H](C)NC(=O)c1cc(N)cc(-c2cnc(NC(C)C)c(=O)n2CC(=O)NCc2ccc(C(=N)N)cc2C(=O)NCC(=O)OC)c1 | 23 nM | 31 nM | 26700 nM | > 30000 nM

The remaining molecules from weak to strong by IC50 [2], led by results:

Row | IC50 [1] | IC50 [2] | IC50 [3] | IC50 [4] | SMILES
5 | 152 nM | 50 nM | > 30000 nM | > 30000 nM | CC[C@@H](C)NC(=O)c1cc(N)cc(-c2cnc(NC(C)C)c(=O)n2CC(=O)NCc2ccc(C(=N)N)cc2C(=O)O)c1
6 |  | 28 nM | > 30000 nM | > 30000 nM | CC[C@@H](C)NC(=O)c1cc(N)cc(-c2cnc(NC(C)C)c(=O)n2CC(=O)NCc2ccc(C(=N)N)cc2C(=O)Nc2ccncc2)c1
7 | 6.2 nM | 20 nM | 13700 nM | > 30000 nM | CC[C@@H](C)NC(=O)c1cc(N)cc(-c2cnc(NC(C)C)c(=O)n2CC(=O)NCc2ccc(C(=N)N)cc2C(N)=O)c1
8 | 21 nM | 16 nM | > 30000 nM | > 30000 nM | CC[C@@H](C)NC(=O)c1cc(N)cc(-c2cnc(NC(C)C)c(=O)n2CC(=O)NCc2ccc(C(=N)N)cc2C(=O)NCC(=O)O)c1

From ChEMBL document CHEMBL1139615, “Structure-based design and synthesis of pyrazinones containing novel P1 'side pocket' moieties as inhibitors of TF/VIIa” (Bioorg Med Chem Lett, 2005)
